Measured values published in ChEMBL document CHEMBL1201862, “PubChem BioAssay data set” (2004).
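Assay format: 96-well plates, 48-hour exposure. GI50: concentration for 50% inhibition of growth.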 Active and inactive are the calls of the source. No stated cut-off is given here; in the data, active = GI50 up to about 1.1 µM and inactive = higher.

Columns and labels:
Assay in all cases: growth of human tumour cells (NCI), 48 h
[1] = test system: A498
[2] = test system: BT-549
[3] = test system: CAKI-1
[4] = test system: CCRF-CEM
[5] = test system: HOP-92
[6] = test system: IGROV-1
[7] = test system: K562
[8] = test system: LOX IMVI
[9] = test system: MCF7
[10] = test system: NCI-H23
[11] = test system: SF-268
[12] = test system: SF-295
[13] = test system: SF-539
[14] = test system: SK-MEL-2
[15] = test system: SK-MEL-5
[16] = test system: SNB-19
[17] = test system: SNB-75
[18] = test system: SW-620
[19] = test system: U-251
[20] = test system: UACC-62

SMILES: Nc1nc(=O)c(/N=N/c2ccccc2)c(C(=O)O)[nH]1
- GI50 [1]: > 100 µM (inactive)
- GI50 [2]: > 100 µM (inactive)
- GI50 [3]: > 100 µM (inactive)
- GI50 [4]: 40.1 µM (inactive)
- GI50 [5]: > 100 µM (inactive)
- GI50 [6]: 85.7 µM (inactive)
- GI50 [7]: 54.6 µM (inactive)
- GI50 [8]: 74.6 µM (inactive)
- GI50 [9]: 79.3 µM (inactive)
- GI50 [10]: > 100 µM (inactive)
- GI50 [11]: 72.3 µM (inactive)
- GI50 [12]: 56.6 µM (inactive)
- GI50 [13]: > 100 µM (inactive)
- GI50 [14]: > 100 µM (inactive)
- GI50 [15]: 93.8 µM (inactive)
- GI50 [16]: > 100 µM (inactive)
- GI50 [17]: > 100 µM (inactive)
- GI50 [18]: > 100 µM (inactive)
- GI50 [19]: 56.9 µM (inactive)
- GI50 [20]: > 100 µM (inactive)

SMILES: C=CCc1cc(-c2cc(CC=C)c(O)c(CN(CCCl)CCCl)c2)cc(CN(CCCl)CCCl)c1O
- GI50 [1]: 20.7 µM (inactive)
- GI50 [2]: 14.3 µM (inactive)
- GI50 [3]: 8.22 µM (inactive)
- GI50 [4]: 3.03 µM (inactive)
- GI50 [5]: 15.4 µM (inactive)
- GI50 [6]: 16.2 µM (inactive)
- GI50 [7]: 32.8 µM (inactive)
- GI50 [8]: 10.3 µM (inactive)
- GI50 [9]: 5.77 µM (inactive)
- GI50 [10]: 6.89 µM (inactive)
- GI50 [11]: 12.7 µM (inactive)
- GI50 [12]: 13 µM (inactive)
- GI50 [13]: 12.2 µM (inactive)
- GI50 [14]: 22.1 µM (inactive)
- GI50 [15]: 16.8 µM (inactive)
- GI50 [16]: 19.1 µM (inactive)
- GI50 [17]: 16.3 µM (inactive)
- GI50 [18]: 12.3 µM (inactive)
- GI50 [19]: 10.8 µM (inactive)
- GI50 [20]: 7.89 µM (inactive)

SMILES: C[C@H]1[C@H]2[C@H](C[C@@]3(C)C4=CC[C@H]5C(C)(C)[C@@H](OC6OCC(O)C(O)C6O)CC[C@@]56C[C@@]46CC[C@]23C)O[C@@]2(O)[C@@H]1OC(C)(C)[C@H]2O (stereo not given in full)
- GI50 [1]: 1.89 µM (inactive)
- GI50 [2]: 1.86 µM (inactive)
- GI50 [3]: 2.05 µM (inactive)
- GI50 [4]: 0.791 µM (active)
- GI50 [5]: 1.09 µM (active)
- GI50 [6]: 0.918 µM (active)
- GI50 [7]: 2.39 µM (inactive)
- GI50 [8]: 1.48 µM (inactive)
- GI50 [9]: 0.867 µM (active)
- GI50 [10]: 1.09 µM (active)
- GI50 [11]: 0.914 µM (active)
- GI50 [12]: 0.429 µM (active)
- GI50 [13]: 1.95 µM (inactive)
- GI50 [14]: 5.53 µM (inactive)
- GI50 [15]: 1.66 µM (inactive)
- GI50 [16]: 2.49 µM (inactive)
- GI50 [17]: 1.62 µM (inactive)
- GI50 [18]: 1.13 µM (inactive)
- GI50 [19]: 1.69 µM (inactive)
- GI50 [20]: 1.61 µM (inactive)

SMILES: C[N+]1(C)CC[N+](C)(C)[BH-]1C(O)O
- GI50 [1]: > 100 µM (inactive)
- GI50 [2]: > 100 µM (inactive)
- GI50 [3]: > 100 µM (inactive)
- GI50 [4]: > 100 µM (inactive)
- GI50 [5]: > 100 µM (inactive)
- GI50 [6]: > 100 µM (inactive)
- GI50 [7]: > 100 µM (inactive)
- GI50 [8]: > 100 µM (inactive)
- GI50 [9]: > 100 µM (inactive)
- GI50 [10]: > 100 µM (inactive)
- GI50 [11]: > 100 µM (inactive)
- GI50 [12]: > 100 µM (inactive)
- GI50 [13]: > 100 µM (inactive)
- GI50 [14]: > 100 µM (inactive)
- GI50 [15]: > 100 µM (inactive)
- GI50 [16]: > 100 µM (inactive)
- GI50 [17]: 0.376 µM (active)
- GI50 [18]: > 100 µM (inactive)
- GI50 [19]: > 100 µM (inactive)
- GI50 [20]: > 100 µM (inactive)

SMILES: COc1ccc2c(c1)/C(=C\c1c(Cl)[nH]c3cc(C)c(OC)cc13)C(=O)N2
- GI50 [1]: 0.83 µM (active)
- GI50 [2]: 0.679 µM (active)
- GI50 [3]: 1.46 µM (inactive)
- GI50 [4]: 0.726 µM (active)
- GI50 [5]: 2.14 µM (inactive)
- GI50 [6]: 0.467 µM (active)
- GI50 [7]: 0.522 µM (active)
- GI50 [8]: 0.753 µM (active)
- GI50 [9]: 0.41 µM (active)
- GI50 [10]: 0.593 µM (active)
- GI50 [11]: 0.986 µM (active)
- GI50 [12]: 0.396 µM (active)
- GI50 [13]: 0.266 µM (active)
- GI50 [14]: 0.713 µM (active)
- GI50 [15]: 0.69 µM (active)
- GI50 [16]: 1.39 µM (inactive)
- GI50 [17]: 0.984 µM (active)
- GI50 [18]: 1.22 µM (inactive)
- GI50 [19]: 0.653 µM (active)
- GI50 [20]: 0.434 µM (active)
